Active and inactive are the calls of the source. The calls are words filed in the database; no cut-off is given here.
Assays:
[1] = target: Alpha-synuclein (Homo sapiens) (UniProt P37840); test: Inhibition of human alpha-synuclein aggregation expressed in Escherichia coli BL21 (DE3) cells at 400 uM at 5:1 molar ratio after 72 hrs by ThT fluorescence assay relative to control; parameters: scale not given: the % may be the effect or the level left
Saccharomyces cerevisiae = test: Anti-prion activity against [URE3] protein in Saccharomyces cerevisiae SB34 at 100 uM measured after 96 hrs by fluorimetry analysis
[2] = target: Alpha-synuclein (Homo sapiens) (UniProt P37840); test: Binding affinity to human alpha-synuclein aggregation expressed in Escherichia coli BL21 (DE3) cells at 50 uM at 1:1 molar ratio after 3 hrs by (+) HRESIMS analysis
[3] = Anti-prion activity against [PSI+] protein in Saccharomyces cerevisiae STRg6 measured after 96 hrs by fluorimetry analysis

Compound | Activity [1] [%] | Activity (Saccharomyces cerevisiae) | Activity [2] | EC50 [3] [µM]
O=C(O[C@@H]1Cc2c(O)cc(O)cc2O[C@@H]1c1cc(O)c(O)c(O)c1)c1cc(O)c(O)c(O)c1 | 96.3 |  |  | 
CC(CCC[C@@H](C)[C@H]1CC[C@@H]2[C@]1(C)CC[C@@H]1[C@@]3(C)CC[C@@H](O)C[C@@H]3C[C@@H](O)[C@]12O)COS(=O)(=O)O (some centres undefined) | 68 | Active | Active | 12.7
CC(/C=C/[C@@H](C)[C@H]1CC[C@@H]2[C@]1(C)CC[C@@H]1[C@@]3(C)CC[C@@H](O)C[C@@H]3C[C@@H](O)[C@]12O)C(C)COS(=O)(=O)O (some centres undefined) |  |  |  | 9.8
N=C(N)N/N=C/c1c(Cl)cccc1Cl [GUANABENZ] |  | Active |  | 26
C[C@@H](C/C=C/[C@@H](C)[C@H]1CC[C@@H]2[C@]1(C)CC[C@@H]1[C@@]3(C)CC[C@@H](O)C[C@@H]3C[C@@H](O)[C@]12O)COS(=O)(=O)O (relative stereo) |  |  |  | 13.8

From ChEMBL document CHEMBL4673341, “Anti-prion and α-Synuclein Aggregation Inhibitory Sterols from the Sponge Lamellodysidea cf. chlorea” (J Nat Prod, 2020)
